Data on three molecules can be found in US20250255932A1, “Granulocyte-Colony Stimulating Factor For The Promotion Of Scarless Tissue Regeneration” (The United States Government As Represented By The …, priority 2024, published 2025).

For experiment [1], the system named is ear hole injury in WT and CXCR2-KO mice. The experiment can be described thus: Ear hole closure with topical imiquimod 5% cream. It counts as in vivo. The method, then:
For ear wounding, a standard 2 mm mechanical punch (Roboz, Gaithersburg, MD) was used to create a hole in the center of each outer ear (pinna). Ear hole diameter was measured using a dissection microscope (Nikon) in the horizontal and vertical directions on a weekly basis. Ears were excluded if there were signs of wound infection, tearing of the ear, or abnormal geometric shape. These criteria were pre-established. For the antibiotic experiments, the same protocol as previously published was used (11).
To assess whether the CXCR2-mediated pathway utilized the same molecular mechanism, […] imiquimod 5% cream was rubbed on skin 5 days per week, beginning one week prior to ear hole injury in WT and CXCR2-KO mice. […] Imiquimod-treated CXCR2-KO mice achieved complete ear hole closure at a 90% frequency, which was >2-fold higher than CXCR2-KO mice (FIG. 9B, bottom graphs). Indeed, this 90% complete closure rate in imiquimod-treated CXCR2-KO mice is greater than the individual imiquimod or CXCR2 components combined.

Another experiment has as its system Cxcl2. As to conditions: exogenous CFH; cited from earlier work.
For another experiment, the system named is WT mice undergoing WIHN. The experiment can be described thus: Wound induced hair neogenesis (WIHN), injection into the wound bed. It counts as in vivo. The note with it: recombinant G-CSF vs PBS injected daily into wound beds of WT mice for the first 3 days. The method, then:
To assess whether the circulating factor(s) was a cell or protein, plasma from CXCR2-KO and WT (control) mice was collected and injected daily into the wound beds of WT mice undergoing WIHN for the first 3 days after injury (FIG. 4B). The WIHN model was used because the wound bed was more accessible. […] Thus, a circulating protein in CXCR2-KO plasma improves tissue regeneration.
(§1) Next, recombinant G-CSF or PBS (control) was injected daily into the wound beds of WT mice undergoing WIHN for the first 3 days (FIG. 4D). […] This experiment was repeated in the stented back wound model. G-CSF-treated mice healed with >3-fold less scar formation compared to control mice (FIG. 4E). […] Taken together, exogenous G-CSF is sufficient to reduce scar formation and to promote complete tissue regeneration.
1-cm^2 full-thickness skin wounds were made as previously described (10). 5-weeks later, de novo hair follicles were identified by whole-mount alkaline phosphatase staining of dermis preparations as previously described.

Experiment [2] has as its system stented back wounds on WT mice. The experiment can be described thus: Stented back wound model. It counts as in vivo. The method, then: as §1
(§2) In our single-cell datasets, neutrophils and macrophages were the primary cell types in injured skin to express the G-CSF receptor (Csfr3) (FIG. 8D). […] Immunofluorescence confirmed that macrophages in WT and CXCR2-KO injured skin expressed the G-CSF receptor (FIG. 8E). […] Moreover, wounded tissue was collected at day 4 after injury in the stented back wound model from G-CSF-treated or PBS-treated WT mice. […] Taken together, G-CSF reduces scar formation and promotes tissue regeneration through polarization of infiltrating macrophages into an anti-inflammatory phenotype.
6 mm disposable biopsy punch (Acuderm) was used to make two circular full thickness wounds on the dorsal back skin of mice. Silicon wound splints (Grace Bio-Labs) were sutured with 4-0 Nylon to prevent skin contracture. Wounds were dressed with a sterile occlusive dressing and monitored daily. Borders were monitored by frequently application of permanent marker.
Standard histology and immunostaining protocols were performed, and investigators were blinded during histologic staining. 4% paraformaldehyde was used as the fixative. Briefly, immunohistochemical analysis was performed on 5-10 μm-thick sections of mouse skin. The following primary antibodies were used: rabbit monoclonal anti-Arginase-1 (93668, Cell Signaling Technology), rabbit polyclonal anti-CD80 (8679, ProSci), rabbit polyclonal anti-Histone H3 (ab5103, Abcam), goat polyclonal anti-MPO (AF3667, R&D Systems), Goat polyclonal anti-CD206 (AF2535, R&D Systems), rabbit monoclonal anti-F4/80 (70076, Cell Signaling Technology), rabbit polyclonal anti-COX2 (ab15191, Abcam), rabbit anti-iNOS (2982, Cell Signaling Technology), rabbit polyclonal anti-GCSFR (bs-2574R, Bioss) rabbit monoclonal anti-CD163 (68922, Cell Signaling Technology) and rat anti-Ly6G (551459, BD Pharmingen). […] After staining, images were directly analyzed using a Leica Microsystems DM6 B microscope equipped with a DFC9000 Camera or Keyence imaging system. […] Immunofluorescent images were analyzed using FIJI (40). The signal for the protein of interest was calculated as the percent area occupied by the cells positive for the protein of interest within the tissue section.
The paraffin sections were first de-waxed and hydrated. […] The acquired images were analyzed for fibrosis by quantifying the percent of collagen 1 (PSR) signal within the wounded tissue region. […]

Experiment [3] relates to bone-marrow derived monocytes. The experiment can be described thus: In vitro polarization of bone-marrow derived monocytes (bulk RNA-seq gene expression). It counts as cell-based, mouse. As to conditions: monocytes treated with and without G-CSF, gene expression levels (FPKM).
Description: as §2
Monocytes were lysed immediately by adding TRIzol LS reagent. The samples were vortexed for 20 seconds, 0.2×volumes of chloroform was added, tubes were mixed by inverting and samples were centrifuged at 13,000 rpm at 4° C. for 15 min. The aqueous phase was then purified and the RNA-seq library were made using NEBNext® Low Input RNA Library Prep Kit (E6420S/L), following the manufacturer's instructions.
Fastq files were aligned to the mm10 reference genome using STAR_2.4.0 in basic two Pass mode using the “Encode” options as specified in the manual. Reads overlapping with annotated genes (Ensembl build mm10) were counted using the summarizeOverlaps function from the R package “GenomicAlignments” in strand-specific, paired-end mode. […]

The subject of experiment [4] is epidermolysis bullosa patients. The note with it: systemic G-CSF; cited from earlier work.

For the molecule `CC(C)Cn1cnc2c(N)nc3ccccc3c21` [Imiquimod, imiquimod], the ear hole closure entry in experiment [1] (imiquimod 5% cream on skin 5 days per week from one week prior to injury, vs control-treated mice) was “closed their ear holes even more efficiently than control-treated mice”. The “frequency of complete ear hole closure” value in experiment [1] (imiquimod-treated CXCR2-KO mice) is 90%. Further, the “complete ear hole closure frequency relative to CXCR2-KO mice” value in experiment [1] (imiquimod-treated CXCR2-KO mice vs CXCR2-KO mice) was greater than 2 fold.

With complement factor H [CFH], in the experiment on Cxcl2, the “fibroblast-specific expression of Cxcl2” value is on record as “reduces fibroblast-specific expression of Cxcl2”, the macrophage recruitment entry was “no changes in macrophage recruitment”, the neutrophil recruitment entry was “reduced neutrophil recruitment” and the tissue regeneration entry was “partial tissue regeneration”.

B1: Granulocyte Colony-Stimulating Factor (protein, UniProt P09920 31-208, looked up)
Granulocyte …: VPLVTVSALPPSLPLPRSFLLKSLEQVRKIQASGSVLLEQLCATYKLCHPEELVLLGHSLGIPKASLSGCSSQALQQTQCLSQLHSGLCLYQGLLQALSGISPALAPTLDLLQLDVANFATTIWQQMENLGVAPTVQPTQSAMPAFTSAFQRRAGGVLAISYLQGFLETARLALHHLA
notes: recombinant G-CSF injected into wound beds of WT mice
B1: the “increase in hair follicle regeneration compared to control mice” value in the experiment with WT mice undergoing WIHN was determined as 5 fold. For the same molecule, the “less scar formation compared to control mice” value in experiment [2] (G-CSF vs PBS, scar size at day 28 after injury) is greater than 3 fold. The “fibrosis in healed skin (picrosirius red staining)” value in experiment [2] (G-CSF-treated WT mice vs control skin) was “less fibrosis than control skin”. In addition, in experiment [2] (day 4 after injury, G-CSF-treated vs PBS-treated WT mice), the “anti-inflammatory macrophages (Cd163 and Mrc1) in wounded tissue” value is “more anti-inflammatory macrophages”. In addition, the average scar diameter in experiment [2] (histological analysis, G-CSF-treated WT mice (PBS ~1.8 mm)) is listed as roughly 0.5 mm. Besides, the polarization of monocytes result in experiment [3] is “directly polarized in vitro bone-marrow derived monocytes into an anti-inflammatory state”. In addition, in experiment [4], the “blister counts and wound sizes” value is “reduced blister counts and wound sizes”.
